Four molecules from ChEMBL document CHEMBL1201862, “PubChem BioAssay data set” (2004) can be followed below.

Test systems include LOX IMVI; MDA-MB-231; NCI-H522; M14; HCT-116; A549; EKVX; SNB-19; HOP-92; Malme-3M; RXF 393; NCI-H460; SK-MEL-2; OVCAR-3; HCT-15; DU-145; SR; SK-OV-3; SK-MEL-5; MDA-MB-435.
Common to all, as to assay: NCI anticancer screen, dose series, 48 h

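Test compounds were applied to cells in 96-well plates for 48 hours at 5 doses. GI50 marks 50% less growth.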 Activity calls are given as the source filed them. No stated cut-off is given here; in the data, active = GI50 up to about 1.1 µM and inactive = higher.

With `CCN(CC)CCNc1ccc([N+](=O)[O-])c2nc3ccc(OC)cc3c(N)c12`, the GI50 in the assay with LOX IMVI is 0.172 µM (active); in the assay with MDA-MB-231, 1.16 µM (inactive); in the assay on NCI-H522, 0.309 µM (active); in the assay with M14 it was 1.37 µM (inactive); with HCT-116, 0.151 µM (active); in the assay on A549, 1.27 µM (inactive). The GI50 with EKVX is 1.7 µM (inactive); in the assay on SNB-19 it was 1.67 µM (inactive); with HOP-92, 1.34 µM (inactive); in the assay with Malme-3M, 1.78 µM (inactive); with RXF 393, 1.16 µM (inactive); in the assay on NCI-H460 it was 1.22 µM (inactive). Also, the GI50 is 1.05 µM (active) in the assay with SK-MEL-2; 1.86 µM (inactive) in the assay with OVCAR-3; 1.27 µM with HCT-15; 1.65 µM (inactive) with DU-145; 0.262 µM (active) with SR; 1.89 µM (inactive) in the assay with SK-OV-3. In addition, the GI50 in the assay with SK-MEL-5 was 0.811 µM (active); with MDA-MB-435, 1.45 µM (inactive).
For `O=C(Nc1ccc(Nc2ccc3c(c2)C(=O)c2ccccc2C3=O)c2c1C(=O)c1ccccc1C2=O)c1ccccc1`, the GI50 in the assay on LOX IMVI was > 82.2 µM (inactive); in the assay with MDA-MB-231, 46.6 µM (inactive); in the assay with NCI-H522, 3.36 µM (inactive); with M14, > 91.8 µM (inactive); in the assay with HCT-116, > 100 µM (inactive); in the assay on A549, > 72.6 µM (inactive). Further, the GI50 with EKVX was > 100 µM (inactive); in the assay with SNB-19, > 80.5 µM (inactive); in the assay with HOP-92, > 59.7 µM (inactive); with Malme-3M, 14.1 µM (inactive); with RXF 393, 20.3 µM (inactive); in the assay with NCI-H460 it was 6.47 µM (inactive). In addition, the GI50 in the assay with SK-MEL-2 is 11.9 µM (inactive); with OVCAR-3 it was 16 µM (inactive); in the assay with HCT-15, 7.62 µM; with DU-145 it was 80.2 µM (inactive); in the assay with SR, 0.989 µM (active); in the assay on SK-OV-3 it was 67.9 µM (inactive). The figures for the GI50 in the assay with SK-MEL-5 and in the assay on MDA-MB-435 were > 42 µM (inactive) and 3.53 µM (inactive), respectively.
Regarding `C/C=C(/C)C(=O)O[C@H](C[C@@H](C)[C@H]1CC(c2ccoc2)OC1=O)[C@@]1(C)C(=O)CCC2O[C@]21C` (stereo partly drawn), the GI50 with LOX IMVI, in the assay on MDA-MB-231, in the assay on NCI-H522, in the assay on M14, with HCT-116 and in the assay on A549 was > 100 µM (inactive) in each case. The GI50 with EKVX, in the assay with SNB-19, in the assay with Malme-3M, in the assay on RXF 393, in the assay with NCI-H460 and in the assay with SK-MEL-2 was > 100 µM (inactive) throughout. The GI50 in the assay with OVCAR-3 was > 100 µM (inactive); in the assay with HCT-15 it was above 100 µM; in the assay with DU-145 it was > 100 µM (inactive); in the assay with SR it was > 100 µM (inactive); with SK-OV-3 it was > 100 µM (inactive); in the assay on SK-MEL-5, > 100 µM (inactive). Moreover, the GI50 in the assay with MDA-MB-435 was > 100 µM (inactive).
`Cn1c(=O)c2ccccc2[n+]2c(-c3cccc([N+](=O)[O-])c3)csc12`: the GI50 with LOX IMVI is > 100 µM (inactive); in the assay on MDA-MB-231 it was 30.8 µM (inactive); with NCI-H522, 38 µM (inactive); in the assay with M14 it was > 100 µM (inactive); with HCT-116, 67.5 µM (inactive); in the assay with A549, 91.4 µM (inactive). Besides, the GI50 in the assay on EKVX is 25.2 µM (inactive); with SNB-19, > 100 µM (inactive); with HOP-92, > 100 µM (inactive); with Malme-3M it was > 100 µM (inactive); in the assay on RXF 393, 43.4 µM (inactive); in the assay with NCI-H460, 36.7 µM (inactive). The GI50 with SK-MEL-2 is 36.4 µM (inactive); in the assay with OVCAR-3, 39.4 µM (inactive); with DU-145, > 100 µM (inactive); in the assay on SR, 18.6 µM (inactive); in the assay with SK-OV-3, 73.6 µM (inactive); in the assay on SK-MEL-5, 59.7 µM (inactive). In addition, the GI50 in the assay on MDA-MB-435 is 63.7 µM (inactive).
